“Also recorded” adds a separate entry of the source. Like-named read-outs stand apart in the source and are kept apart here.
How the values were obtained:
[1] = system: 24-hydroxylase (24OHase) gene promoter; assay: In vitro 24-hydroxylase transcription assay (luciferase reporter, ROS 17/2.8 bone cells); type: cell-based; details: for Antagonism of gene transactivation stimulated by native hormone: combined with 1,25(OH)2D3; for 24OHase Transcription (Relative Activity): native hormone value / working example value, same assay
Description: Transcription activity was measured in ROS 17/2.8 (bone) cells that were stably transfected with a 24-hydroxylase (24OHase) gene promoter upstream of a luciferase reporter gene (Arbour et al., 1998). Cells were given a range of doses. Sixteen hours after dosing, the cells were harvested and luciferase activities were measured using a luminometer. RLU=relative luciferase units.

vitamin D receptor [2] = biological target: T1, vitamin D receptor (Rattus norvegicus, UniProt P13053); assay: Competitive vitamin D receptor binding; details: for Competitive VDR Binding (Relative Activity): native hormone value / working example value, same assay; for Competitive VDR Binding (Relative Activity) / Ki: present compounds; for Ki: read-out: Competitive VDR Binding, Ki; for Binding to the nuclear vitamin D receptor compared with native hormone: versus 1,25(OH)2D3; for VDR binding activity relative to CN-67 (ratio of relative activities): versus CN-67
T1 construct: Full-length recombinant rat receptor was expressed in E. coli; His tag (C); made in house; host or cells: E. coli BL21(DE3) Codon Plus RIL
T1 sequence (P13053 1-423): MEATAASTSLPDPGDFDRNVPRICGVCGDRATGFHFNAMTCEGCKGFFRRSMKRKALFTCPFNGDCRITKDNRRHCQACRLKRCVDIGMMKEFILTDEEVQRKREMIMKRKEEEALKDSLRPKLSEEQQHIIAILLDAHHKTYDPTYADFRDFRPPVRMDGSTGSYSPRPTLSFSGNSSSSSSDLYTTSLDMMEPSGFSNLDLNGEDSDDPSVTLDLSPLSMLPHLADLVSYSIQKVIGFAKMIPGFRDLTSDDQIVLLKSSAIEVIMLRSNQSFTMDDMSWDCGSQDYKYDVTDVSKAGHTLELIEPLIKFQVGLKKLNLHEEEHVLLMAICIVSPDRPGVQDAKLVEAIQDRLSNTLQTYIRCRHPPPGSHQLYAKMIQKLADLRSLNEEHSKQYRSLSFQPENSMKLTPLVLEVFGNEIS
Description: Full-length recombinant rat receptor was expressed in E. coli BL21(DE3) Codon Plus RIL cells and purified to homogeneity using two different column chromatography systems. The first system was a nickel affinity resin that utilizes the C-terminal histidine tag on this protein. The protein that was eluted from this resin was further purified using ion exchange chromatography (S-Sepharose Fast Flow). Aliquots of the purified protein were quick frozen in liquid nitrogen and stored at −80° C. until use. For use in binding assays, the protein was diluted in TEDK50 (50 mM Tris, 1.5 mM EDTA, pH 7.4, 5 mM DTT, 150 mM KCl) with 0.1% Chaps detergent. The receptor protein and ligand concentration was optimized such that no more than 20% of the added radiolabeled ligand was bound to the receptor.
Unlabeled ligands were dissolved in ethanol and the concentrations determined using UV spectrophotometry (1,25(OH)2D3: molar extinction coefficient=18,200 and λmax=265 nm; Analogs: molar extinction coefficient=42,000 and λmax=252 nm). Radiolabeled ligand (^3H-1,25(OH)2D3, ˜159 Ci/mmole) was added in ethanol at a final concentration of 1 nM.
Radiolabeled and unlabeled ligands were added to 100 mcl of the diluted protein at a final ethanol concentration of ≦10%, mixed and incubated overnight on ice to reach binding equilibrium. The following day, 100 mcl of hydroxylapatite slurry (50%) was added to each tube and mixed at 10-minute intervals for 30 minutes. The hydroxylapaptite was collected by centrifugation and then washed three times with Tris-EDTA buffer (50 mM Tris, 1.5 mM EDTA, pH 7.4) containing 0.5% Titron X-100. After the final wash, the pellets were transferred to scintillation vials containing 4 ml of Biosafe II scintillation cocktail, mixed and placed in a scintillation counter. Total binding was determined from the tubes containing only radiolabeled ligand.

Sprague-Dawley rats [3] = assay: Intestinal calcium transport (everted gut sac); type: in vivo, rat; details: for Intestinal calcium transport activity compared with native hormone: rat, intraperitoneal; for Intestinal calcium transport activity at very high doses: very high doses (e.g., 2340-2600 pmol)
Description: (§1) Male, weanling Sprague-Dawley rats were placed on Diet 11 (0.47% Ca) diet+AEK oil for one week followed by Diet 11 (0.02% Ca)+AEK oil for 3 weeks. The rats were then switched to a diet containing 0.47% Ca for one week followed by two weeks on a diet containing 0.02% Ca. Dose administration began during the last week on 0.02% calcium diet. Four consecutive intraperitoneal doses were given approximately 24 hours apart. Twenty-four hours after the last dose, blood was collected from the severed neck and the concentration of serum calcium determined as a measure of bone calcium mobilization. The first 10 cm of the intestine was also collected for intestinal calcium transport analysis using the everted gut sac method.
(§2) Antagonism was tested by administering a combination of 1,25(OH)2D3 and the putative antagonist to the animal simultaneously.

Sprague-Dawley rats [4] = assay: Bone calcium mobilization (serum calcium); type: in vivo, rat; details: for Bone calcium mobilization activity: rat, intraperitoneal, at the doses tested
Description: as §1, §2

HL-60 cells = assay: HL-60 differentiation (nitro blue tetrazolium reduction); type: cell-based, human; details: for EC50: Homo sapiens, HL-60; for HL-60 cell differentiation activity: compound alone; for HL-60 Differentiation (Relative Activity): native hormone value / working example value, same assay
Description: The study drugs were dissolved in ethanol and the concentrations determined using UV spectrophotometry. Serial dilutions were prepared so that a range of drug concentrations could be tested without changing the final concentration of ethanol (≦0.2%) present in the cell cultures.
Human promyelocytic leukemia (HL60) cells were grown in RPMI-1640 medium containing 10% fetal bovine serum. The cells were incubated at 37° C. in the presence of 5% CO2.
HL60 cells were plated at 1.2×10^5 cells/ml. Eighteen hours after plating, cells in duplicate were treated with the drug. Four days later, the cells were harvested and a nitro blue tetrazolium reduction assay was performed (Collins et al., 1979; J. Exp. Med. 149:969-974). The percentage of differentiated cells was determined by counting a total of 200 cells and recording the number that contained intracellular black-blue formazan deposits. Verification of differentiation to monocytic cells was determined by measuring phagocytic activity (data not shown).
Antagonism was tested by adding a combination of 1,25(OH)2D3 and the putative antagonist in the same well keeping the final ethanol concentration the same.

vitamin D receptor [5] = biological target: T1, vitamin D receptor; details: compounds of U.S. Pat. No. 7,915,242; read-out: Competitive VDR Binding, Ki; cited from earlier work
[6] = when administered with 1,25(OH)2D3, present compounds
[7] = combined with 1,25(OH)2D3, systemic administration

| Compound | Antagonism of gene transactivation stimulated by native hormone [1] | 24OHase Transcription (Relative Activity) ([1]; present compounds) | EC50 ([1]; present compounds) [nM] | Competitive VDR Binding (Relative Activity) (vitamin D receptor [2]) | Ki (vitamin D receptor [2]) [nM] | Binding to the nuclear vitamin D receptor compared with native hormone (vitamin D receptor [2]) | VDR binding activity relative to CN-67 (ratio of relative activities) (vitamin D receptor [2]) | Intestinal calcium transport activity compared with native hormone (Sprague-Dawley rats [3]) | Intestinal calcium transport activity at very high doses (Sprague-Dawley rats [3]) | Bone calcium mobilization activity (Sprague-Dawley rats [4]) | EC50 (HL-60 cells; present compounds) [nM] | HL-60 cell differentiation activity (HL-60 cells) | HL-60 Differentiation (Relative Activity) (HL-60 cells; present compounds) | Ki (vitamin D receptor [5]) [nM] | other results |
| --- | --- | --- | --- | --- | --- | --- | --- | --- | --- | --- | --- | --- | --- | --- | --- |
| C=C1[C@H](O)CC(=C/C=C2\CCC[C@]3(C)[C@@H]([C@H](C)/C=C/C(=O)C4(C(=O)CCC(C)C)CC4)CC[C@@H]23)C[C@H]1O [PP-48, (20R,22E)-2-methylene-25-(4-methylpentanoyl)-24-oxo-26,27-cyclo-22-dehydro-1α-hydroxy-19-norvitamin D3] | no antagonistic activity | 0.1 | 2 | 0.17 | 0.6 | lower affinity relative to 1,25(OH)2D3; also recorded: lower affinity than the native hormone; also recorded: bind the vitamin D receptor | ≈ 11 times | potency similar to that of the native hormone | increased intestinal calcium transport activity at very high doses | essentially no ability to mobilize calcium from bone; also recorded: essentially inactive in releasing bone calcium stores; also recorded: neither PP-48 nor AS-51 demonstrate any appreciable ability to mobilize calcium from bone | 30 | agonistic behavior; also recorded: active in causing HL-60 differentiation | 0.1 |  | 24-hydroxylase transcription activity ([1]; compound alone): agonistic behavior; also recorded: exhibits activity in 24-hydroxylase transcription, albeit reduced from the native hormone; Intestinal calcium transport activity at moderate doses (Sprague-Dawley rats [3]; moderate doses): only PP-48 increased such transport significantly at moderate doses |
| C=C1[C@H](O)CC(=C/C=C2\CCC[C@]3(C)[C@@H]([C@H](C)/C=C/[C@@H](O)C4(C(=O)SCCCC)CC4)CC[C@@H]23)C[C@H]1O [AS-51, (20R,22E,24R)-25-carbobutylsulfanyl-2-methylene-26,27-cyclo-22-dehydro-1α,24-dihydroxy-19-norvitamin D3] | can inhibit gene transactivation stimulated by the native hormone; also recorded: antagonistic activity; also recorded: inhibits gene transactivation stimulated by the native hormone | 0.02 | 6 | 1.0 | 0.1 | same potency as the native hormone; also recorded: bind the vitamin D receptor | ≈ 67 times | somewhat less active than 1,25(OH)2D3 in stimulating intestinal calcium transport at very high doses; also recorded: potency less than that of the native hormone at low doses | increased intestinal calcium transport activity at very high doses | essentially inactive in releasing bone calcium stores; also recorded: neither PP-48 nor AS-51 demonstrate any appreciable ability to mobilize calcium from bone | > 1000 | does not effectively promote cellular differentiation | 0.002 |  | Concentrations showing inhibition of gene transactivation ([1]; antagonist mode): 10^−8-10^−7 M; Times less potent than native hormone in increasing transcription of the 24-hydroxylase gene ([1]; bone cells, versus 1,25(OH)2D3): ~60 times; 24-hydroxylase transcription potency relative to CN-67 (ratio of relative activities) ([1]; versus CN-67, bone cells): ≈ 3; 24-hydroxylase transcription potency relative to OU-72 (ratio of relative activities) ([1]; versus OU-72, bone cells): 2; 24OHase Transcription, antagonism [1, 6]: Antagonistic; In vivo antagonism in combination with native hormone (intestinal calcium transport) (Sprague-Dawley rats [3]; [7]): no antagonism was observed; In vivo antagonism in combination with native hormone (bone calcium mobilization) (Sprague-Dawley rats [4]; [7]): no antagonism was observed; Concentrations showing inhibition of cellular differentiation (HL-60 cells; antagonist mode): 10^−8-10^−7 M; Inhibition of native hormone-induced HL-60 differentiation (HL-60 cells; combined with 1,25(OH)2D3): potent inhibitor of the native hormone; also recorded: antagonistic activity; HL-60 potency relative to CN-67 (ratio of relative activities) (HL-60 cells; versus CN-67): ≈ 0.03; HL-60 potency relative to OU-72 (ratio of relative activities) (HL-60 cells; versus OU-72): ≈ 0.007; HL-60 Differentiation, antagonism (HL-60 cells; [6]): Antagonistic |
| C=C1C(O)CC(=CC=C2CCCC3(C)C2CCC3C(C)C=CC(O)C2(C(=O)OCCCC)CC2)CC1O [OU-72, (22E)-(24R)-25-carbobutoxy-2-methylene-26,27-cyclo-22-dehydro-1α,24-dihydroxy-19-norvitamin D3] |  |  |  |  |  |  |  |  |  |  |  |  |  | 0.023 |  |
| C=C1C(O)CC(=CC=C2CCCC3(C)C2CCC3C(C)C=CC(OCCCC)C2(C(=O)OCCCC)CC2)CC1O [CN-67, (22E)-(24R)-24-butoxy-25-carbobutoxy-2-methylene-26,27-cyclo-22-dehydro-1α-hydroxy-19-norvitamin D3] |  |  |  |  |  |  |  |  |  |  |  |  |  | 1.5 |  |

Source: US9834512B2, “(22E)-2-methylene-26,27-cyclo-22-dehydro-1α-hydroxy-19-norvitamin D3 derivatives” (WISCONSIN ALUMNI RESEARCH FOUNDATION, priority 2011, dated 2017)
